Values quoted from earlier work as cited in patent publication US6413525B1, “Methods of exfoliation using N-acetyl glucosamine” (Color Access, Inc., priority 1999, dated 2002).

Tested on: skin
Settings: as disclosed in WO97/12597

For `CC(=O)N[C@H]1C(O)O[C@H](CO)[C@@H](O)[C@@H]1O` (stereo partly drawn) [N-acetyl-D-glucosamine], the “efficacy as a topical desquamating agent” value is given as “not found to be effective”.
